Series [1] can be described thus: Metabolite profiling of MASM in rats by UHPLC-QQQ-MS/MS. The format is in vivo, Sprague-Dawley rats. The following applies: rat, MASM i.p. 80 mg/kg, i.g. 60 mg/kg. The procedure:
The identification of the in vivo metabolites of MASM was conducted using UHPLC-QQQ-MS/MS combined with standard references and deuterium-labeled MASM. The findings are presented in Table 2, while the proposed primary metabolic pathway of MASM in rats is depicted in Figure 4. To provide a comprehensive understanding of the metabolite identification process, three representative metabolites of MASM are presented, with their identification relying on primary and secondary mass spectrometry data, standard references, and deuterium-labeled MASM. The remaining metabolites are detailed in Supplementary File S4. For instance, the identification of the metabolite, M1, as a demethylation product of MASM was accomplished through the utilization of MS, MS/MS data, and the standard reference. […] Moreover, the identification of M1 as the demethylation metabolite of MASM was accomplished using the standard reference synthesized in our laboratory. […] Secondly, the metabolite, M2, of MASM was identified as the dehydrogenation product of MASM through the utilization of MS and MS/MS data. […] Consequently, M2 was identified as a dehydrogenation metabolite of M1. Thirdly, through the utilization of MS, MS/MS data, and deuterium-labeled MASM, the metabolite, M8, of MASM was determined to be a dehydrogenation product of MASM. […] The major MS/MS fragment ions of M8 were found at m/z 111.92, 178.77, 150.16, and 135.85, which aligned with the characteristic cleavage pattern of matrine. Additionally, our lab synthesized deuterium-labeled MASM to further support our proposed structure. […] Consequently, M8 was identified as a dehydrogenation metabolite of MASM. The EIC, MS/MS spectrum of M8 and deuterium-labeled MASM are all depicted in Figure 5C.
UHPLC analysis was performed using a Thermo Accela AS system, employing an ACQUITY UPLC®BEH C18 (Waters Corporation, Wexfords, Ireland) (1.7 µm, 2.1 × 100 mm) column and a binary solvent system consisting of water containing 0.1% formic acid as mobile phase A and acetonitrile as mobile phase B. For pharmacokinetic evaluation, the gradient elution was set as follows: 97% A from 0 to 2 min, 97–70% A from 2 to 3 min, 70–20% A from 3 to 3.5 min, 20% A from 3.5 to 3.6 min, 20–97% A from 3.6 to 3.7 min, and 97% A from 3.7 to 5 min. For the metabolic test, the gradient elution in full scan mode was set as follows: 97% A from 0 to 2 min, 97–70% A from 2 to 4 min, 70–20% A from 4 to 6 min, 20% A from 6 to 7 min, 20–97% A from 7 to 8 min, and 97% A from 8 to 10 min. The flow rate was 0.2 mL/min, with a temperature of 40 °C maintained and an injection volume of 5 μL. The QQQ-MS/MS analysis was conducted using a Thermo TSQ QUANTUM ACCESS MAX system equipped with an electrospray ionization (ESI) source. The spray voltages were set at 4.0 kV and 2.5 kV for positive and negative ion modes, respectively; capillary and vaporizer temperatures were 320 °C and 350 °C, respectively; sheath and aux gas pressures were 35 and 10 psi, respectively.
Seventy Sprague-Dawley rats were fasted overnight before dosing, with free access to water. Subsequently, the rats were randomly and equally divided into 7 groups: the control groups received 3 different routes of administration: intravenous, intraperitoneal, and intragastric (NS, saline 1 mL/100 g); MASM intraperitoneal group (A, i.p. 80 mg/kg), MASM intragastrical group (B, i.g. 60 mg/kg), MASM intravenous group (C, i.v. 15 mg/kg), and DMASM intragastrical group (D, i.g. 60 mg/kg). It is important to note that the recommended clinical dose of matrine injection is 0.15 g, which is equivalent to a dosage of 15 mg/kg in rats. MASM was administered via tail vein injection at a dosage of 1 mL/100 g for intravenous dosing, while for intraperitoneal dosing, MASM was injected at the lower-right side of the abdomen of rats. […]

Series [2] deals with mice. The following applies: cited from earlier work.
For series [3] the following is noted: cited from earlier work.

Regarding `O=C1C=CC[C@@H]2[C@H]3CCC[N+]4([O-])CCC[C@@H](CN12)[C@@H]34` (stereo partly shown) [M4, oxysophocarpine], the “Method of Administration after which the metabolite of MASM was found” value (“Method of Administration” for short) in series [1] is reported as “i.p. i.g”.
Regarding `O=C1CCC[C@@H]2[C@H]3CCC[N+]4([O-])CCC[C@@H](CN12)[C@@H]34` (stereo partly shown) [M5, oxymatrine], the “Method of Administration” value in series [1] is “i.p. i.g”.
Same read-out and setting: with `CNC1CC(S)N2CC3CCCN4CCCC(C34)C2C1` (stereo not shown) [M6] the entry was “i.p. i.g”; with `NC1CC(=S)N2CC3CCCN4CCCC(C34)C2C1` (stereo not shown) [M7], “i.p. i.g”; with `CN[C@@H]1CC(=S)N2CC3CCCN4C=CCC(C34)C2C1` (stereo partly shown) [M8], “i.g”.
As to `OCNC1CC(=S)N2CC3CCCN4CCCC(C34)C2C1` (stereo not shown) [M9], in series [1], the “Method of Administration” value is given as “i.g”.
Same read-out and setting: with `O=CNC1CC(=S)N2CC3CCCN4CCCC(C34)C2C1` (stereo not shown) [M10] the entry was “i.g”.
Take `O=C1CCC[C@@H]2[C@H]3CCCN4CCC[C@@H](CN12)[C@@H]34` [matrine]: the LD50 of matrine in series [2] is reported as 83.21 mg/kg. Moreover, in series [3] (after oral administration, ref Zhang et al. 11), the “time of peak plasma concentration of matrine” value is reported as 2.1 h. In series [3] (reported value, ref Yang et al. 12), the bioavailability of matrine is 18.5%.

These data come from PMC10820135, “Pharmacokinetic, Tissue Distribution, Metabolite, and Toxicity Evaluation of the Matrine Derivative, (6aS, 10S, 11aR, 11bR, 11cS)-10-Methylaminododecahydro-3a, 7a-Diaza-benzo (de) Anthracene-8-thione” (Molecules, 2024).
